Assay results reported in patent publication US8592456B2 (4SC Discovery GmbH, priority 2011, dated 2013).

System: PBMC (T cell proliferation)
Test: T cell proliferation assay, PHA-stimulated human PBMC (BrdU ELISA)
Format: cell-based
Details: Homo sapiens, 48 h, read-out: IC50 (Tcell proliferation)
Method: Cell proliferation was analysed using the BrdU based cell proliferation ELISA from Roche (Mannheim, Germany) according to the manufacturer's instructions.
T Cell Proliferation Assay
Peripheral blood mononuclear cells (PBMC) from healthy human donors were isolated by centrifugation over Ficoll-Hypaque (Sigma-Aldrich, Germany) according to manufacturer's instructions. Purified PBMC were washed twice with PBS and resuspended in RPMI1640 culture medium supplemented with 10% dialyzed heat inactivated fetal calf serum, 1.5 mM L-glutamine, 100 U penicillin/ml, and […] (all from PAN Biotech, Aidenbach, Germany). For stimulation, PBMC were seeded at 1×10^5 cells/well, activated with 2 μg/ml phytohaemagglutinin (PHA, Sigma) and incubated with the test compound. After 48 hours proliferation was measured using the BrdU based cell proliferation ELISA from Roche (Mannheim, Germany) according to the manual.

| SMILES | IC50 [nM] |
| --- | --- |
| Oc1csc(-c2c(-c3c(F)cccc3Cl)noc2-c2cnn(-c3cccc(F)c3)c2C(F)(F)F)n1 [Example I-9, 2-(3-(2-chloro-6-fluorophenyl)-5-(1-(3-fluorophenyl)-5-(trifluoromethyl)-1H-pyrazol-4-yl)isoxazol-4-yl)thiazol-4-ol] | 100 to 1000 |

Same assay, conditions: PHA-stimulated human PBMC, 48 hours, BrdU; column D; activity classes 1-4; read-out: IC50 (Tcell proliferation)

| SMILES | IC50 [nM] |
| --- | --- |
| Fc1cccc(Cl)c1-c1noc(-c2cnn(-c3cccc(Cl)c3)c2C(F)(F)F)c1-c1nnn[nH]1 [Example I-3, 3-(2-chloro-6-fluorophenyl)-5-(1-(3-chlorophenyl)-5-(trifluoromethyl)-1H-pyrazol-4-yl)-4-(1H-tetrazol-5-yl)isoxazole] | 1000 to 10000 |
| Fc1ccccc1-n1ncc(-c2onc(-c3c(F)cccc3Cl)c2-c2nccs2)c1C(F)(F)F [IB-30, 3-(2-chloro-6-fluorophenyl)-5-(1-(2-fluorophenyl)-5-(trifluoromethyl)-1H-pyrazol-4-yl)-4-(thiazol-2-yl)isoxazole] | 10 to 100 |
| Cc1nnc(-c2c(-c3c(F)cccc3Cl)noc2-c2cnn(-c3ccncc3)c2C(F)(F)F)o1 [IB-19, 2-(3-(2-chloro-6-fluorophenyl)-5-(1-(pyridin-4-yl)-5-(trifluoromethyl)-1H-pyrazol-4-yl)isoxazol-4-yl)-5-methyl-1,3,4-oxadiazole] | 100 to 1000 |
| Fc1cccc(Cl)c1-c1noc(-c2cnn(-c3ccncc3)c2C(F)(F)F)c1-c1nnco1 [IB-16, 2-(3-(2-chloro-6-fluorophenyl)-5-(1-(pyridin-4-yl)-5-(trifluoromethyl)-1H-pyrazol-4-yl)isoxazol-4-yl)-1,3,4-oxadiazole] | 100 to 1000 |
| Fc1cccc(-n2ncc(-c3onc(-c4c(F)cccc4Cl)c3-c3nnco3)c2C(F)(F)F)c1 [Example I-7, 2-(3-(2-chloro-6-fluorophenyl)-5-(1-(3-fluorophenyl)-5-(trifluoromethyl)-1H-pyrazol-4-yl)isoxazol-4-yl)-1,3,4-oxadiazole] | 10 to 100 |
| Cc1nnc(-c2c(-c3c(F)cccc3Cl)noc2-c2cnn(-c3ccccc3Cl)c2C(F)(F)F)s1 [IB-20, 3-(2-chloro-6-fluorophenyl)-5-(1-(2-chlorophenyl)-5-(trifluoromethyl)-1H-pyrazol-4-yl)-4-(5-methyl-1,3,4-thiadiazol-2-yl)isoxazole] | 100 to 1000 |
| Fc1cccc(-n2ncc(-c3onc(-c4c(F)cccc4Cl)c3-c3nnn[nH]3)c2C(F)(F)F)c1 [Example I-2, 3-(2-chloro-6-fluorophenyl)-5-(1-(3-fluorophenyl)-5-(trifluoromethyl)-1H-pyrazol-4-yl)-4-(1H-tetrazol-5-yl)isoxazole] | 1000 to 10000 |

Same assay, conditions: human PBMC, 2 μg/ml PHA, 48 hours, BrdU; read-out: D: IC50 (Tcell proliferation)

| SMILES | IC50 [nM] |
| --- | --- |
| CCOC(=O)c1c(-c2onc(-c3c(F)cccc3Cl)c2C(=O)OC)cnn1-c1cccc(F)c1 [Example 8, methyl 3-(2-chloro-6-fluorophenyl)-5-(5-(ethoxycarbonyl)-1-(3-fluorophenyl)-1H-pyrazol-4-yl)isoxazole-4-carboxylate] | 100 to 1000 |
| CSC(=O)c1c(-c2c(F)cccc2Cl)noc1-c1cnn(-c2ccccc2F)c1C(F)(F)F [Example 130, S-methyl 3-(2-chloro-6-fluorophenyl)-5-(1-(2-fluorophenyl)-5-(trifluoromethyl)-1H-pyrazol-4-yl)isoxazole-4-carbothioate] | < 10 |
| COC(=O)c1c(-c2ccccc2)noc1-c1cnn(-c2ccc(OC(F)(F)F)cc2)c1C(F)(F)F [Example 74, methyl 3-phenyl-5-(1-(4-(trifluoromethoxy)phenyl)-5-(trifluoromethyl)-1H-pyrazol-4-yl)isoxazole-4-carboxylate] | 1000 to 10000 |
| CCOC(=O)c1c(-c2c(F)cccc2Cl)noc1-c1cnn(-c2cccnc2)c1C(F)(F)F [Example B-37, ethyl 3-(2-chloro-6-fluorophenyl)-5-(1-(pyridin-3-yl)-5-(trifluoromethyl)-1H-pyrazol-4-yl)-isoxazole-4-carboxylate] | < 10 |
| CCOC(=O)c1c(-c2onc(-c3c(F)cccc3Cl)c2C(=O)OC)cnn1-c1ccccc1F [Example 41, methyl 3-(2-chloro-6-phenyl)-5-(5-(ethoxycarbonyl)-1-(2-fluorophenyl)-1H-pyrazol-4-yl)isoxazole-4-carboxylate] | 100 to 1000 |
| COC(=O)c1c(-c2c(F)cccc2Cl)noc1-c1cnn(-c2ccc(OC(F)(F)F)cc2)c1C(F)(F)F [Example 33, methyl 3-(2-chloro-6-fluorophenyl)-5-(1-(4-(trifluoromethoxy)phenyl)-5-(trifluoromethyl)-1H-pyrazol-4-yl)isoxazole-4-carboxylate] | 1000 to 10000 |
| N#Cc1c(-c2c(F)cccc2Cl)noc1-c1cnn(-c2cccc(F)c2)c1C(F)(F)F [Example 120, 3-(2-chloro-6-fluorophenyl)-5-(1-(3-fluorophenyl)-5-(trifluoromethyl)-1H-pyrazol-4-yl)isoxazole-4-carbonitrile] | 100 to 1000 |
| CCOC(=O)c1c(-c2c(F)cccc2Cl)noc1-c1cnn(-c2ccc(C#N)cc2)c1C(F)(F)F [Example B-40, ethyl 3-(2-chloro-6-fluorophenyl)-5-(1-(4-cyanophenyl)-5-(trifluoromethyl)-1H-pyrazol-4-yl)-isoxazole-4-carboxylate] | 1000 to 10000 |
| COC(=O)c1c(-c2ccc(OC)cc2)noc1-c1cnn(-c2cccc(F)c2)c1C(F)(F)F [Example 107, methyl 5-(1-(3-fluorophenyl)-5-(trifluoromethyl)-1H-pyrazol-4-yl)-3-(4-methoxyphenyl)isoxazole-4-carboxylate] | 1000 to 10000 |
| CNC(=O)c1c(-c2ccccc2Cl)noc1-c1cnn(-c2cccc(F)c2)c1C(F)(F)F [Example 96, 3-(2-chlorophenyl)-5-(1-(3-fluorophenyl)-5-(trifluoro-methyl)-1H-pyrazol-4-yl)-N-methylisoxazole-4-carboxamide] | 100 to 1000 |
| Nc1c(-c2c(F)cccc2Cl)noc1-c1cnn(-c2cccc(Cl)c2)c1C(F)(F)F [Example B-36, 3-(2-chloro-6-fluorophenyl)-5-(1-(3-chlorophenyl)-5-(trifluoromethyl)-1H-pyrazol-4-yl)isoxazol-4-amine] | 100 to 1000 |
| CNC(=O)c1c(-c2c(F)cccc2Cl)noc1-c1cnn(-c2cccc(F)c2)c1C(F)(F)F [Example 62, 3-(2-chloro-6-fluorophenyl)-5-(1-(3-fluorophenyl)-5-(trifluoromethyl)-1H-pyrazol-4-yl)-N-methylisoxazole-4-carboxamide] | 10 to 100 |
| COC(=O)c1c(-c2ccccc2F)noc1-c1cnn(-c2cccc(Cl)c2)c1C(F)(F)F [Example B-77, methyl 5-(1-(3-chlorophenyl)-5-(trifluoromethyl)-1H-pyrazol-4-yl)-3-(2-fluorophenyl)isoxazole-4-carboxylate] | 10 to 100 |
| COC(=O)c1c(-c2c(F)cccc2Cl)noc1-c1cnn(-c2cccc(C#N)c2)c1C(F)(F)F [Example 12, methyl 3-(2-chloro-6-fluorophenyl)-5-(1-(3-cyanophenyl)-5-(trifluoromethyl)-1H-pyrazol-4-yl)isoxazole-4-carboxylate] | 10 to 100 |
| COC(=O)c1c(-c2c(Cl)cccc2Cl)noc1-c1cnn(-c2cccc(Cl)c2)c1C(F)(F)F [Example B-75, methyl 5-(1-(3-chlorophenyl)-5-(trifluoromethyl)-1H-pyrazol-4-yl)-3-(2,6-dichlorophenyl)isoxazole-4-carboxylate] | < 10 |
| CCOC(=O)c1c(-c2c(F)cccc2Cl)noc1-c1cnn(-c2cccc(NC(C)=O)c2)c1C(F)(F)F [Example B-70, ethyl 5-(1-(3-acetamidophenyl)-5-(trifluoromethyl)-1H-pyrazol-4-yl)-3-(2-chloro-6-fluorophenyl)isoxazole-4-carboxylate] | 10 to 100 |
| CCOC(=O)c1c(-c2c(Cl)cncc2Cl)noc1-c1cnn(-c2cccc(NC(C)=O)c2)c1C(F)(F)F [Example B-11, ethyl 5-(1-(3-acetamidophenyl)-5-(trifluoromethyl)-1H-pyrazol-4-yl)-3-(3,5-dichloropyridin-4-yl)isoxazole-4-carboxylate] | 100 to 1000 |
| CCOC(=O)c1c(-c2c(F)cccc2Cl)noc1-c1cnn(Cc2ccccc2F)c1C(F)(F)F [Example B-80, ethyl 3-(2-chloro-6-fluorophenyl)-5-(1-(2-fluorobenzyl)-5-(trifluoromethyl)-1H-pyrazol-4-yl)isoxazole-4-carboxylate] | 1000 to 10000 |
| CCOC(=O)c1c(-c2onc(-c3c(F)cccc3Cl)c2C(=O)OC)cnn1-c1ccc(F)cc1 [Example 26, methyl 3-(2-chloro-6-fluorophenyl)-5-(5-(ethoxycarbonyl)-1-(4-fluorophenyl)-1H-pyrazol-4-yl)isoxazole-4-carboxylate] | 1000 to 10000 |
| COC(=O)c1c(-c2ccccc2)noc1-c1cnn(-c2ccccc2F)c1C(F)(F)F [Example 61, methyl 5-(1-(2-fluorophenyl)-5-(trifluoromethyl)-1H-pyrazol-4-yl)-3-phenylisoxazole-4-carboxylate] | 1000 to 10000 |
| CC(C)OC(=O)c1c(-c2c(F)cccc2Cl)noc1-c1cnn(-c2ccccc2Cl)c1C(F)(F)F [Example B-60] | 1000 to 10000 |
| COC(=O)c1c(-c2c(F)cccc2Cl)noc1-c1cnn(-c2cccnc2)c1C(F)(F)F [Example B-67, methyl 3-(2-chloro-6-fluorophenyl)-5-(1-(pyridin-3-yl)-5-(trifluoromethyl)-1H-pyrazol-4-yl)isoxazole-4-carboxylate] | 10 to 100 |
| O=C(O)c1c(-c2ccccc2F)noc1-c1cnn(-c2cccc(F)c2)c1C(F)(F)F [Example 91, 3-(2-fluorophenyl)-5-(1-(3-fluorophenyl)-5-(trifluoromethyl)-1H-pyrazol-4-yl)isoxazole-4-carboxylic acid] | 1000 to 10000 |
